Test results reported in patent publication US20240368133A1, “Compounds for the Treatment of Pain, in Particular, Neuropathic Pain, and/or Other Diseases or Disorders that are Associated with AT2R and/or AT2R Mediated Signaling” (Confo Therapeutics N.V., priority 2021, published 2024).

Columns and labels:
human AT2R fused to Cb23 = human AT2R fused to Cb23 (Homo sapiens, UniProt P50052); experiment: Radioligand binding assay, displacement of 125I-[Sar1, Ile8]-Angiotensin II, hAT2R Cb23; details: displacement of 125I-[Sar1, Ile8]-Angiotensin II, human AT2R fused to Cb23, HEK-293 cell membrane preparations; read-out: Binding affinity on hAT2R_Cb23 IC50
Chain of human AT2R fused to Cb23 (P50052 whole entry, looked up, the tested form may be a part): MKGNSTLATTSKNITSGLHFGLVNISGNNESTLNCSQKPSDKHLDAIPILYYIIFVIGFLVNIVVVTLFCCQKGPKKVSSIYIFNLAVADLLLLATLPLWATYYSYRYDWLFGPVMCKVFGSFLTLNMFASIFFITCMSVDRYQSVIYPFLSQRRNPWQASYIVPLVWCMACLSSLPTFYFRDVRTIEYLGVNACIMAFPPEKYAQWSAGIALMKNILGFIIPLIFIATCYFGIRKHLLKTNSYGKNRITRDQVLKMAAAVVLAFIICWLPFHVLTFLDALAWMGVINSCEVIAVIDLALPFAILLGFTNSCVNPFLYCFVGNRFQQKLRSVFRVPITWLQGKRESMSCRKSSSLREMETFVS
In short: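 Membranes from HEK-293 cells expressing human AT2R fused to Cb23 were incubated with 0.05 nM 125I-[Sar1, Ile8]-Angiotensin II in 100 μL buffer (50 mM Tris, 5 mM MgCl2, 1 mM EDTA, 0.1% BSA, pH 7.4) for one hour at 25° C. Ligands were tested as eight-point dose-response curves in duplicate, with C21 and Angiotensin II as references.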

CYP1A2 = CYP1A2 (Homo sapiens (Human), UniProt P05177); experiment: in vitro
Chain of CYP1A2 (P05177 whole entry): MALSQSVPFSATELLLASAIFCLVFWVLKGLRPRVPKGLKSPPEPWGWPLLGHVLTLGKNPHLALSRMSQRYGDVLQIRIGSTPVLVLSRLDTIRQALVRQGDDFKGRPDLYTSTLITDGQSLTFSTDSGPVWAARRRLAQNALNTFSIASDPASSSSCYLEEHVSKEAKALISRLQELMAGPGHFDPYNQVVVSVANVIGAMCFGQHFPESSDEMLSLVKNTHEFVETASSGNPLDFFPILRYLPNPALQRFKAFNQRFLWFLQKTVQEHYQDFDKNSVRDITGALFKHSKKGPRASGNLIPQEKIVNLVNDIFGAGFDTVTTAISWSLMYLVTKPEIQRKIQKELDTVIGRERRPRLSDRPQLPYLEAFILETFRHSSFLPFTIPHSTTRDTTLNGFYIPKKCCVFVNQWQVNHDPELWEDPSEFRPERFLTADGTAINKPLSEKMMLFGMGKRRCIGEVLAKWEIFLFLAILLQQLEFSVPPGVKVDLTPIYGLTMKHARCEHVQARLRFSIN
Protocol: (§1) The aim of this assay is to determine the inhibitory potential of a test compound. A major concern for drug-drug-interaction is cytochrome P450 inhibition. Reversible CYP inhibition was determined in human liver microsomes using specific probe substrates for human cytochrome P450 isoenzymes CYP1A2, 2C9, 2C19, 2D6 and 3A4.
The potential for CYP450 inhibition was assessed by performing in vitro inhibition studies using fluorogenic CYP450 substrates with the corresponding CYP450 enzymes and NADPH regeneration system (Vivid CYP450 Screening Kits) with some minor changes to the manufacturer's protocols. The fluorescent signal produced from reaction is directly proportional to the cytochrome P450 activity. In the cases when tested compounds interfere with the CYP450 enzyme-substrate reaction, the fluorescent signal decreases. In brief, the tested compounds were first dissolved in DMSO at 100× concentration (1 mM), and diluted in buffer to 2.5× concentration (25 μM). Then the 2.5× compound solutions were mixed with the Master Pre-mix consisting of Human CYP450+Oxidoreductase and NADP+Regeneration System (glucose-6-phosphate and glucose-6-phosphate dehydrogenase). After 10 minutes pre-incubation, the enzymatic reaction was initiated by the addition of a mix of NADPH and the appropriate CYP450 substrates. The plate was incubated for the desired reaction time (25 min for CYP1A2, CYP2C9, CYP2D6, and CYP3A4, 60 min for CYP2C19) after which Stop Reagent was added and fluorescence measured using SpectraMax Paradigm Multi-Mode Microplate Reader. All test points were performed in quadruplicates at concentration 10 μM (1% DMSO).
(§2) A 10 mM stock solution of test compound is prepared in methanol. This stock is further serially diluted 1:3 in methanol and then added to mixture containing 50 mM potassium phosphate buffer pH7.4, human liver microsomes (BD Gentest) and probe substrate. After pre-warming 5 min at 37° C., the reaction is started by adding co-factor mix ([…] glucose-6-phosphate, 1.7 mg/mL NADP, 6 U/mL of glucose-6-phosphate dehydrogenase), resulting in a final concentration of test compound at 10 μM (2% MeOH).
(§3) Final concentrations of co-factor mix components are as follows: 1.56 mg/mL glucose-6-phosphate, 0.34 mg/mL NADP, 1.2 U/mL of glucose-6-phosphate dehydrogenase.
(§4) After incubation at 37° C., the reaction (aliquot of 50 μL) is terminated with 150 μL CH3CN:MeOH (2:1) solution with internal standard (warfarin for 2C9, diclofenac for all other tested isoforms). Samples are centrifuged and the supernatant fractions analyzed by LC-MS/MS.
(§5) The instrument responses (ratio of test compound and internal standard peak areas) are referenced to those for solvent controls (assumed as 100%) in order to determine the percentage reduction in probe metabolism. Percent of control activity vs. concentration plots are generated and fitted using GraphPad Prism software to generate IC50.

CYP2C19 = CYP2C19 (Homo sapiens (Human), UniProt P33261); experiment: CYP inhibition, CYP2C19; assay type: in vitro ADME; details: test compound at 10 μM, read-out: % Inhibition (PIN) 2C19
Chain of CYP2C19 (P33261 whole entry): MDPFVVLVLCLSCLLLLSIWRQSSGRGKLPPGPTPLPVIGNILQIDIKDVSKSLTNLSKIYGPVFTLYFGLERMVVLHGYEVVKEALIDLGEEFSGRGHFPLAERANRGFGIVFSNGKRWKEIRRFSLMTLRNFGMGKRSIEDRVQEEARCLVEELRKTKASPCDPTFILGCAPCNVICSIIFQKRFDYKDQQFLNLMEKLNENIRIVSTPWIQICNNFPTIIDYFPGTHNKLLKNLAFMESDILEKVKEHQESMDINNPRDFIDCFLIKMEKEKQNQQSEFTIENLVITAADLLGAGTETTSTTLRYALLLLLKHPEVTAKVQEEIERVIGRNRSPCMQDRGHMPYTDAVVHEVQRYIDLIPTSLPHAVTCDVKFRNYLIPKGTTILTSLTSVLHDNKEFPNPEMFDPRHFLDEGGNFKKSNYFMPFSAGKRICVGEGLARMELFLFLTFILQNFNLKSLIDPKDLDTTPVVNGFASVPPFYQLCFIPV
Protocol: as §1, with “3A4. […]” for “3A4.”
as §2, §3, §4, §5

| IC50 (human AT2R fused to Cb23) [nM] | inhibition at 10 µM (CYP1A2) [%] | inhibition at 10 µM (CYP2C19) [%] | Structure (SMILES) |
| --- | --- | --- | --- |
| 510 |  |  | CC(C)Cc1ccc(-c2nn[nH]n2)c(N2CCN(Cc3nc4ccccc4n3C)CC2)c1 [Compound A-20, 2-[[4-[5-isobutyl-2-(2H-tetrazol-5-yl)-phenyl]piperazin-1-yl]methyl]-1-meth-yl-benzimidazole] |
| 6 | 16 | 25 | Cc1cnc(CN2CCN(c3cc(CC(C)C)cc(F)c3-c3nn[nH]n3)C[C@@H]2C)s1 [Compound A-223, 2-[[(2S)-4-[3-fluoro-5-isobutyl-2-(2H-tetrazol-5-yl)phenyl]-2-methyl-piperazin-1-yl]methyl]-5-methyl-thiazole] |
| 2070 | 6.09 | 73 | CC(C)Cc1ccc(-c2nn[nH]n2)c(N2CCN(Cc3nc4ccccc4c(=O)[nH]3)CC2)c1 [Compound A-31, 2-[[4-[5-isobutyl-2-(2H-tetrazol-5-yl)phenyl]piperazin-1-yl]methyl]-3H-quinazolin-4-one] |
| 7140 | 27.4 | 30.9 | CC(C)Oc1ccc(-c2nn[nH]n2)c(N2CCN(Cc3nc4ccccc4n3C)CC2)c1 [Compound A-24, 2-[[4-[5-isopropoxy-2-(2H-tetrazol-5-yl)phenyl]piperazin-1-yl]methyl]-1-methyl-benzimidazole] |
| 2.79 | 16 | 39 | CC(C)Cc1cc(F)c(-c2nn[nH]n2)c(N2CCN(Cc3ccccn3)[C@@H](C)C2)c1 [Compound A-217, (2S)-4-[3-fluoro-5-isobutyl-2-(2H-tetrazol-5-yl)phenyl]-2-methyl-1-(2-pyridylmethyl)piperazine] |
| 1780 | 2.61 | 6.38 | CC(C)Cc1ccc(-c2nn[nH]n2)c(N2CCN(Cc3nccn3C)CC2)c1 [Compound A-83, 1-[5-isobutyl-2-(2H-tetrazol-5-yl)-phenyl]-4-[(1-meth-ylimidazol-2-yl)-methyl]piperazine] |
| 15500 | 22.5 | 17.6 | CC(C)Cc1ccc(-c2nn[nH]n2)c(N2CCN(Cc3ncccn3)CC2)c1 [Compound A-88] |
| 14700 | 7.17 | 48.6 | CC(C)Oc1ccc(-c2nn[nH]n2)c(N2CCN(Cc3nc4ccccc4c(=O)[nH]3)CC2)c1 [Compound A-32] |
| 3200 | 9.89 | -4.12 | Cc1cc(CN2CCN(c3cc(CC(C)C)ccc3-c3nn[nH]n3)CC2)no1 [Compound A-82, 3-[[4-[5-isobutyl-2-(2H-tetrazol-5-yl)phenyl]piperazin-1-yl]methyl]-5-methyl-isoxazole] |
|  | 23 | 38.6 | CCCCNC(=O)NS(=O)(=O)c1ccc(C(F)(F)F)cc1N1CCN(Cc2nc3ccccc3n2C)CC1 [Compound A-10, 1-butyl-3-[2-[4-[(1-methylbenzimidazol-2-yl)methyl]piperazin-1-yl]-4-(trifluoromethyl)phenyl]sulfonyl-urea] |
| 2370 | 5.6 | 18.9 | CC(C)Cc1ccc(-c2nn[nH]n2)c(N2CCN(Cc3ccnn3C)CC2)c1 [Compound A-84, 1-[5-isobutyl-2-(2H-tetrazol-5-yl)phenyl]-4-[(1-methylpyrazol-5-yl)methyl]piperazine] |
| 2180 |  |  | CCCCOC(=O)NS(=O)(=O)c1ccc(C(F)(F)F)cc1N1CCN(Cc2nc3ccccc3n2C)CC1 [Compound A-09, butyl N-[2-[4-[(1-methylbenzimidazol-2-yl)methyl]piperazin-1-yl]-4-(trifluoromethyl)phenyl]sulfonylcarbamate] |
| 16 | 18.5 | 8.93 | CC(C)Cc1cc(F)c(-c2nn[nH]n2)c(N2CCN(Cc3cccnn3)C(C)C2)c1 (centres unmarked) [Compound A-173, 3-[[4-[3-fluoro-5-isobutyl-2-(2H-tetrazol-5-yl)phenyl]-2-methyl-piperazin-1-yl]methyl]pyridazine] |
| 2110 |  |  | CC(C)Oc1ccc(-c2nn[nH]n2)c(N2CCN(Cc3nc4ccccc4s3)CC2)c1 [Compound A-51, 2-[[4-[5-isoprop-oxy-2-(2H-tetrazol-5-yl)phenyl]piper-azin-1-yl]methyl]-1,3-benzothiazole] |
| 14.8 |  |  | CCC1CN(Cc2cccnn2)CCN1c1cc(CC(C)C)cc(F)c1-c1nn[nH]n1 (centres unmarked) [Compound A-181, 3-[[3-ethyl-4-[3-fluoro-5-isobutyl-2-(2H-tetrazol-5-yl)phenyl]piperazin-1-yl]methyl]pyridazine] |
| 2030 | 10.3 | 27.9 | CC(C)Cc1ccc(-c2nn[nH]n2)c(N2CCN(Cc3cccnn3)CC2)c1 [Compound A-90, 3-[[4-[5-isobutyl-2-(2H-tetrazol-5-yl)phenyl]piperazin-1-yl]methyl]pyridazine] |
| 2.35 | 22.7 | 26.5 | CC(C)Cc1cc(F)c(-c2nn[nH]n2)c(N2CCN(Cc3cccnn3)[C@@H](C)C2)c1 [Compound A-174, 3-[[(2S)-4-[3-fluoro-5-isobutyl-2-(2H-tetrazol-5-yl)phenyl]-2-methyl-piperazin-1-yl]methyl]pyridazine] |
| 8.33 |  |  | CC(C)Cc1cc(F)c(-c2nn[nH]n2)c(N2CC(C)N(Cc3cccnn3)CC2C)c1 (centres unmarked) [Compound A-183, 3-[[4-[3-fluoro-5-isobutyl-2-(2H-tetrazol-5-yl)phen-yl]-2,5-dimethyl-piperazin-1-yl]-methyl]pyridazine] |
| 1270 |  |  | CCCCNC(=O)NS(=O)(=O)c1ccc(C)cc1N1CCN(Cc2nc3ccccc3n2C)CC1 [Compound A-12, 1-butyl-3-[4-methyl-2-[4-[(1-methylbenzimidazol-2-yl)methyl]piperazin-1-yl]phenyl]sulfonyl-urea] |

| Structure (SMILES) | IC50 (human AT2R fused to Cb23) [nM] | inhibition at 10 µM (CYP1A2) [%] | inhibition at 10 µM (CYP2C19) [%] |
| --- | --- | --- | --- |
| CCC1CN(c2cc(CC(C)C)cc(F)c2-c2nn[nH]n2)CCN1Cc1cccnn1 (centres unmarked) [Compound A-178, 3-[[2-ethyl-4-[3-fluoro-5-isobutyl-2-(2H-tetrazol-5-yl)phenyl]piperazin-1-yl]methyl]pyridazine] | 33.5 | 23.5 | 7.77 |
